Measured values published in patent US20240408169A1 (priority 2023, published 2024).
Where two headings read alike, the source gives them in different places. *1 amine or outer side, *2 acyl side, *3 side chain or, on linkers, in order; H or OH if unused. Where a SMILES comes first, the peptide text is derived from it. Bridges are numbered along the chain shown (N, C = ends). [ ]: non-standard residue; d: D form. The star is where a group is joined. NMePhe(2-(4-MorPh),5-Cl) = CN[C@@H](Cc1cc(Cl)ccc1-c1ccc(N2CCOCC2)cc1)C(=O)O; X72 = CN([C@@H](Cc1cc(Cl)ccc1-c1cnn(C2CCS(=O)(=O)C2)c1)C(=O)[*:2])[*:1]; X23 = CCN([C@@H](Cc1cc(Cl)ccc1-c1ccc(N2CCN(C)CC2)cc1)C(=O)[*:2])[*:1]; X40 = CN1CCN(Cc2ccc(-c3ccc(Cl)cc3C[C@@H](C(=O)[*:2])N(C)[*:1])cc2)CC1; X108 = CN([C@@H](Cc1cc(Cl)ccc1-c1ccc(CN2CCOCC2)cc1)C(=O)[*:2])[*:1]; X55 = CN([C@@H](Cc1cc(Cl)ccc1-c1cnn(CCN2CCOCC2)c1)C(=O)[*:2])[*:1]; X26 = CN([C@@H](Cc1cc(F)ccc1-c1cnn(C2CC2)c1)C(=O)[*:2])[*:1]; X89 = CN([C@@H](Cc1cc(Cl)ccc1-c1cnn(CC#N)c1)C(=O)[*:2])[*:1]; NMehhhLys(Me) = CN([C@@H](CCCCCCCN(C)[*:3])C(=O)[*:2])[*:1]; cBuCO(3,3-F2-1-CF3) = O=C(C1(C(F)(F)F)CC(F)(F)C1)*; Pro(trans-4-F) = O=C(O)[C@@H]1C[C@@H](F)CN1; Gly(cPr) = N[C@H](C(=O)O)C1CC1

Columns and labels:
CyclinA2/CDK2 = target: T1, CyclinA2/CDK2 (Homo sapiens, UniProt P20248); assay: Fluorescence Polarization (FP) competitive binding assay, Cyclin A2/Cdk2;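 note: plates equilibrated two hours at room temperature before polarization reading, IC50 fitted from eight-concentration compound titration curves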
T1 construct: purchased CRELUX Protein Services

CyclinB1/CDK1 = target: T2, CyclinB1/CDK1 (Homo sapiens, UniProt P14635); assay: Fluorescence Polarization (FP) competitive binding assay, Cyclin B1/Cdk1;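 note: fluorescence polarization read after equilibration at room temperature, with IC50 taken from serially diluted dose-response curves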
T2 construct: purchased Eurofins, discovery 14-450

CyclinE1/CDK2 = target: T3, CyclinE1/CDK2 (Homo sapiens, UniProt P24864); assay: Fluorescence Polarization (FP) competitive binding assay, Cyclin E1/Cdk2;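 note: readings taken after two-hour equilibration at room temperature in HEPES buffer with NaCl, DTT, NP-40 and BSA, IC50 fitted from eight-concentration serial dilution series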
T3 construct: purchased Eurofins, discovery 14-475

WI-38 cells = assay: MTT proliferation assay, WI-38; type: cell-based; conditions: 3 days compound exposure, 1:3 serial dilution starting at 10 μM;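 note: Eight- or ten-point dilution series, with exposure length chosen to span about three to four cell doublings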
NCI-H1048 cells = assay: MTT proliferation assay, NCI-H1048; type: cell-based; conditions: 5 days compound exposure, 1:3 serial dilution starting at 10 μM;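 note: Dose-response in 96-well plates over 8 or 10 concentration points, with exposure spanning 3-4 cell doublings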
OVCAR3 cells = assay: MTT proliferation assay, OVCAR3; type: cell-based; conditions: 5 days compound exposure, 1:3 serial dilution starting at 10 μM;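 note: compound given as an 8- or 10-point series, one day after plating, with exposure covering roughly 3-4 cell doublings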
[1] = 8 nM Cyclin A2/Cdk2, 2 nM FAM probe, average of 2-3 independent experiments, read-out: Cyclin A FP IC50
[2] = 10 nM Cyclin B1/Cdk1, 2 nM FAM probe; average of 2-3 independent experiments; read-out: Cyclin B FP IC50
[3] = 10 nM Cyclin E1/Cdk2, 2 nM FAM probe, average of 2-3 independent experiments, read-out: Cyclin E FP IC50

| SMILES | IC50 (CyclinA2/CDK2; [1]) | IC50 (CyclinB1/CDK1; [2]) | IC50 (CyclinE1/CDK2; [3]) | GI50 (WI-38 cells) | GI50 (NCI-H1048 cells) | GI50 (OVCAR3 cells) | IC50 (CyclinA2/CDK2) | IC50 (CyclinB1/CDK1; read-out: Cyclin B FP IC50; 10 nM Cyclin B1/Cdk1, 2 nM FAM probe; average of 2-3 independent experiments) | IC50 (CyclinE1/CDK2) |
| --- | --- | --- | --- | --- | --- | --- | --- | --- | --- |
| CC(C)C[C@@H]1NC(=O)[C@@H](N(C)C(=O)[C@@H](NC(=O)[C@@H]2C[C@@H](F)CN2C(=O)C2(C(F)(F)F)CCC2)C2CC2)C/C=C\CCCCN(C)C(=O)[C@H](Cc2cc(Cl)ccc2-c2cnn(C)c2)N(C)C1=O [Example 173] | 0.02 µM | 0.02 µM | 0.1 µM | 12.7 µM | 0.01 µM | 0.01 µM |  |  |  |
| CC(C)C[C@@H]1NC(=O)[C@@H](N(C)C(=O)[C@@H](NC(=O)[C@@H]2C[C@@H](F)CN2C(=O)C2(C(F)(F)F)CC(F)(F)C2)C2CC2)CCCCCCCN(C)C(=O)[C@H](Cc2cc(F)ccc2-c2cnn(C3CC3)c2)N(C)C1=O [Example 68] ({cBuCO(3,3-F2-1-CF3)}-[Pro(trans-4-F)][Gly(cPr)][NMehhhLys(Me)]L[X26]; lactam 3-C) | 0.02 µM | 0.02 µM | 0.12 µM | 12.8 µM | 0.01 µM | 0.01 µM |  |  |  |
| CCN1C(=O)[C@H](CC(C)C)NC(=O)[C@@H](N(C)C(=O)[C@@H](NC(=O)[C@@H]2C[C@@H](F)CN2C(=O)C2(C(F)(F)F)CC(F)(F)C2)C2CC2)CCCCCCCN(C)C(=O)[C@@H]1Cc1cc(Cl)ccc1-c1ccc(N2CCN(C)CC2)cc1 [Example 405] ({cBuCO(3,3-F2-1-CF3)}-[Pro(trans-4-F)][Gly(cPr)][NMehhhLys(Me)]L[X23]; lactam 3-C) | 0.05 µM | 0.02 µM | 2.56 µM | 2.16 µM | 0.04 µM | 0.05 µM |  |  |  |
| CC(C)C[C@@H]1NC(=O)[C@@H](N(C)C(=O)[C@@H](NC(=O)[C@@H]2N[C@@H](F)CC2C(=O)C2(C(F)(F)F)CC(F)(F)C2)C2CC2)CC=CCCCCN(C)C(=O)[C@H](Cc2cc(Cl)cnc2OC(C)C)N(C)C1=O (stereo partly drawn) [Example 130] | 0.07 µM | 0.02 µM | 0.31 µM | 8.99 µM | 0.7 µM | 1.55 µM |  |  |  |
| COC(=O)CC[C@H](NC(=O)[C@@H]1C[C@@H](F)CN1C(=O)C1(C(F)(F)F)CC(F)(F)C1)C(=O)N(C)[C@H]1CCCCCCCN(C)C(=O)[C@H](Cc2cc(Cl)ccc2-c2ccc(N3CCOCC3)cc2)N(C)C(=O)[C@H](CC(C)C)NC1=O [Example 415] ({cBuCO(3,3-F2-1-CF3)}-[Pro(trans-4-F)]E(OMe)[NMehhhLys(Me)]L[NMePhe(2-(4-MorPh),5-Cl)]; lactam 3-C) | 0.02 µM | 0.02 µM | 0.3 µM | 14.1 µM | 0.01 µM | 0.01 µM |  |  |  |
| CC(C)C[C@@H]1NC(=O)[C@@H](N(C)C(=O)[C@@H](NC(=O)[C@@H]2C[C@@H](F)CN2C(=O)C2(C(F)(F)F)CC(F)(F)C2)C2CC2)CCCCCCCN(C)C(=O)[C@H](Cc2cc(Cl)ccc2-c2cnn(C3CCS(=O)(=O)C3)c2)N(C)C1=O (stereo partly drawn) [Example 253] ({cBuCO(3,3-F2-1-CF3)}-[Pro(trans-4-F)][Gly(cPr)][NMehhhLys(Me)]L[X72]; lactam 3-C) | 0.02 µM | 0.02 µM | 0.33 µM | 9.93 µM | 0.04 µM | 0.02 µM |  |  |  |
| CC(C)C[C@@H]1NC(=O)[C@@H](N(C)C(=O)[C@@H](NC(=O)[C@@H]2C[C@@H](F)CN2C(=O)C2(C(F)(F)F)CC(F)(F)C2)C2CC2)C/C=C\CCCCN(C)C(=O)[C@H](Cc2cc(Cl)cnc2OC2CC2)N(C)C1=O [Example 258] | 0.07 µM | 0.02 µM | 0.12 µM | 14.2 µM | 0.07 µM | 0.07 µM |  |  |  |
| CC(C)C[C@@H]1NC(=O)[C@@H](N(C)C(=O)[C@@H](NC(=O)[C@@H]2C[C@@H](F)CN2C(=O)C2(C(F)(F)F)CC(F)(F)C2)C2CC2)CCCCCCCN(C)C(=O)[C@H](Cc2cc(Cl)ccc2-c2ccc(CN3CCN(C)CC3)cc2)N(C)C1=O [Example 360] ({cBuCO(3,3-F2-1-CF3)}-[Pro(trans-4-F)][Gly(cPr)][NMehhhLys(Me)]L[X40]; lactam 3-C) | 0.02 µM | 0.02 µM | 0.86 µM | 2.72 µM | 0.01 µM | 0.01 µM |  |  |  |
| CC(C)C[C@@H]1NC(=O)[C@@H](N(C)C(=O)[C@@H](NC(=O)[C@@H]2C[C@@H](F)CN2C(=O)C2(C(F)(F)F)CC(F)(F)C2)C2CC2)CCCCCCCN(C)C(=O)[C@H](Cc2cc(Cl)ccc2-c2cnn(CC#N)c2)N(C)C1=O [Example 216] ({cBuCO(3,3-F2-1-CF3)}-[Pro(trans-4-F)][Gly(cPr)][NMehhhLys(Me)]L[X89]; lactam 3-C) |  |  |  | 15.6 µM | 0.01 µM | 0.01 µM | 0.03 µM | 0.02 µM | 0.47 µM |
| CC(C)C[C@@H]1NC(=O)[C@@H](N(C)C(=O)[C@@H](NC(=O)[C@@H]2C[C@@H](F)CN2C(=O)C2(C(F)(F)F)CC(F)(F)C2)C2CC2)CC=CCCCCNC(=O)[C@H](Cc2cc(Cl)cnc2OC2CC2)N(C)C1=O [Example 129] | 0.21 µM | 0.02 µM | 0.82 µM | 6.88 µM | 1.46 µM | 2.58 µM |  |  |  |
| CC(C)C[C@@H]1NC(=O)[C@@H](N(C)C(=O)[C@@H](NC(=O)[C@@H]2C[C@@H](F)CN2C(=O)C2(C(F)(F)F)CC(F)(F)C2)C2CC2)CCCCCCCN(C)C(=O)[C@H](Cc2cc(Cl)ccc2-c2cnn(CCN3CCOCC3)c2)N(C)C1=O [Example 256] ({cBuCO(3,3-F2-1-CF3)}-[Pro(trans-4-F)][Gly(cPr)][NMehhhLys(Me)]L[X55]; lactam 3-C) | 0.03 µM | 0.02 µM | 0.48 µM | 13.2 µM | 0.01 µM | 0.01 µM |  |  |  |
| COCCn1cc(-c2ccc(Cl)cc2C[C@H]2C(=O)NCCCCC=CC[C@H](N(C)C(=O)[C@@H](NC(=O)[C@@H]3C[C@@H](F)CN3C(=O)C3(C(F)(F)F)CC(F)(F)C3)C3CC3)C(=O)N[C@@H](CC(C)C)C(=O)N2C)cn1 [Example 43] | 0.04 µM | 0.02 µM | 0.37 µM | 8.57 µM | 0.03 µM | 0.04 µM |  |  |  |
| CC(C)C[C@@H]1NC(=O)[C@@H](N(C)C(=O)[C@@H](NC(=O)[C@@H]2C[C@@H](F)CN2C(=O)C2(C(F)(F)F)CCC2)C2CC2)CC=CCCCCNC(=O)[C@H](Cc2cc(Cl)cnc2OC2CC2)N(C)C1=O (single isomer, unassigned) [Example 107-P1] | 0.25 µM | 0.02 µM | 0.54 µM | 5.29 µM | 0.7 µM | 1.01 µM |  |  |  |
| CC(C)C[C@@H]1NC(=O)[C@@H](N(C)C(=O)[C@@H](NC(=O)[C@@H]2C[C@@H](F)CN2C(=O)C2(C(F)(F)F)CC(F)(F)C2)C2CC2)CCCCCCCN(C)C(=O)[C@H](Cc2cc(Cl)ccc2-c2ccc(CN3CCOCC3)cc2)N(C)C1=O [Example 359, (2S,4R)—N—((S)-2-(((3S,6S,9S)-3-((4-chloro-4′-(morpholinomethyl)-[1,1′-biphenyl]-2-yl)methyl)-6-isobutyl-1,4-dimethyl-2,5,8-trioxo-1,4,7-triazacyclohexadecan-9-yl)(methyl)amino)-1-cyclopropyl-2-oxoethyl)-1-(3,3-difluoro-1-(trifluoromethyl)cyclobutane-1-carbonyl)-4-fluoropyrrolidine-2-carboxamide] ({cBuCO(3,3-F2-1-CF3)}-[Pro(trans-4-F)][Gly(cPr)][NMehhhLys(Me)]L[X108]; lactam 3-C) | 0.02 µM | 0.02 µM | 0.68 µM | 4.56 µM | 0.01 µM | 0.01 µM |  |  |  |
